{"source": "patent US20260015311A1", "about": "“AMINO LIPID COMPOUND, PREPARATION METHOD THEREFOR, AND USE THEREOF” (SHENZHEN SHENXIN BIOTECHNOLOGY CO., LTD., priority 2022, published 2026)", "key": {"Fluc mRNA [1]": {"tested_on": "Fluc mRNA", "test": "Activity of lipid nanoparticles of formulation method 2, Fluc mRNA by intramuscular administration", "type": "in vivo, BALB/c mice", "procedure": "(§1) The formulation method was the same as the formulation method 1, except that the molar ratio of the amino lipid compounds to DSPC, cholesterol and PEG2000-DMG was 50:10:38.5:1.5.\n(§2) 9 mice were assigned randomly to each group and injected with the lipid nanoparticles at a dosage of 0.5 mg/kg by three administration routes, i.e., subcutaneous, intramuscular and tail vein injection (three mice for each administration route). After 12 hours, D-luciferin potassium salt (200 μL, 10 mg/mL) was injected into each mouse through the tail vein. After 10 minutes, the total fluorescence intensity of each mouse was observed on a living imaging system (IVIS-200, Xenogen) and taken photographs for record. The expression intensities of Fluc mRNA delivered by representative amino lipid compounds through the three administration routes are shown in Table 2-4. MC3 was used as a control and SM102 was used as a comparative compound.\nPreparation of Lipid Nanoparticles: LNPs were Prepared Using the Formulation Method 2 for Intramuscular Administration.\nThe measurement method was the same as that of Test Example 1."}, "Fluc mRNA [2]": {"tested_on": "Fluc mRNA", "test": "In vivo delivery of luciferase mRNA (Fluc mRNA) by lipid nanoparticles, living imaging", "parameters": "species or system BALB/c mice", "conditions": "after 12 hours, total fluorescence", "procedure": "(§3) The amino lipid compounds of the present disclosure were mixed with DOPE, cholesterol, and PEG2000-DMG in a molar ratio of 45:10:42.5:2.5 and dissolved in absolute ethanol. By using a microinjection pump, the resultant ethanol solution and a sodium acetate solution (50 mM, pH=4.0) were mixed in a ratio of 1:3 in a microfluidic chip to prepare a crude solution of lipid nanoparticles, which were then dialyzed in 1×PBS at a controlled temperature of 4° C. for 6 h using a dialysis box (Fisher, MWCO 20,000), and filtered through a 0.22 μm microporous filter membrane before use.\nas §1\nThe lipid nanoparticles prepared according to the above formulation method 1 or 2 were used in the biological experiments below for evaluating the performances of in vivo delivery of luciferase mRNA (Fluc mRNA). For the lipid nanoparticles obtained in the formulation method 1, the mass ratio of the amino lipid compounds to the luciferase mRNA was about 10:1, and the lipid nanoparticles were administered subcutaneously; and the lipid nanoparticles obtained in the formulation method 2 were administered by tail vein and intramuscular injection.\n6-week-old female BALB/c mice weighed about 20 g were selected and fed in a SPF-grade feeding room. Animal tests were conducted strictly according to the guidelines of National Health institutions and the requirements of animal ethics.\nas §2"}, "[3]": {"test": "Stability of lipid nanoparticles at 25° C., DLS particle size and PDI", "type": "physicochemical", "conditions": "for particle size: preparation day (week 0)", "procedure": "as §3\n(§4) Preparation of Lipid Nanoparticles: The Formulation Method 1 was Used to Prepare LNPs for Subcutaneous Administration.\nCharacterization of lipid nanoparticles: The particle size and PDI of the prepared lipid nanoparticles were measured by Nano-ZSZEN 3600 (Malvern). 40 μL of the LNP solution was taken for particle size measurement with circulation for three times, 30 seconds for each circulation.\n(§5) The particle size measurements were carried out on the day of preparation (week 0), and after one week (week 1), two weeks (week 2), and four weeks (week 4) of storage at 25° C., and the expression intensities of Fluc mRNA delivered by subcutaneous administration were determined on the day of preparation (week 0) and after four weeks (week 4)."}, "Fluc mRNA [4]": {"tested_on": "Fluc mRNA", "test": "Stability of lipid nanoparticles at 25° C., subcutaneous expression of Fluc mRNA", "type": "in vivo, mice", "conditions": "for Fluc expression change after four weeks: 25° C., week 4 versus week 0", "procedure": "as §3, §2, §4, §5"}, "liver": {"tested_on": "liver", "test": "Targeting assay, fluorescence in liver after intramuscular injection", "type": "in vivo, mice", "conditions": "15 μg mRNA per animal, 6 h after injection, dissected liver", "procedure": "The lipids were mixed with DSPC, CHO-HP, M-DMG2000 (i.e. PEG2000-DMG) in a molar ratio of 50:10:38.5:1.5 and dissolved in absolute ethanol. mRNA was dissolved in a sodium acetate solution (0.2M, pH=5.0). The samples of various prescriptions were prepared at a water phase:alcohol phase=9 ml/min: 3 ml/min by using a microfluidic equipment (MPE-L2) and a chip (SN.000035). The two phases were mixed by injecting them into the microfluidic chip according to the interface requirements, and then the drug solution was loaded into a 100KD dialysis bags, immersed in a beaker containing 1 L dialysis solution and wrapped with aluminum foil, and dialyzed at 100 rpm for 1 h at room temperature, and then the dialysis solution was replaced and the dialysis continued for 1 h.\nFormulation of dialysis solution: 1×PBS+8% sucrose solution: 2 packets of 1×PBS powder were taken into a beaker, dissolved with 2 L DEPC water, added with 160 g of sucrose additionally, and mixed to obtain the 1×PBS+8% sucrose solution.\nThe mass ratio of mRNA:Lipids in the obtained lipid nanoparticles were about 1:10.\nFluorescent protein-encoding mRNA-LNP preparations containing Compound (I-6-II), MC3 or SM102, respectively were prepared by using the formulation method of mRNA lipid nanoparticle (LNP) preparations as described above, selecting a fluorescent protein-encoding mRNA as the mRNA and the compound (I-6-II), MC3 or SM102, respectively as the lipid.\nEach preparation to be tested was administered to mice by intramuscular injection, with each animal receiving 15 μg mRNA preparation sample. 6 h after sample injection, the mice were anesthetized by isoflurane inhalation, and injected intraperitoneally with 200 μL of D-Luciferin (concentration 10 mg/ml) luciferase development substrate. […] After development of living imaging of the intramuscularly injected animals, they were immediately dissected, followed by observation of the fluorescence in the liver immediately after the dissection."}, "[5]": {"conditions": "intramuscular injection, formulation method 2, 0.5 mg/kg"}, "[6]": {"conditions": "tail vein administration, formulation method 2, 0.5 mg/kg"}, "[7]": {"conditions": "subcutaneous administration, formulation method 1, 0.5 mg/kg"}, "[8]": {"conditions": "week 0, subcutaneous administration"}, "[9]": {"conditions": "week 4, storage at 25° C., subcutaneous administration"}}, "data": [{"compound": "CCCCCCCCC(CCCCCC)OC(=O)CCCCCN(CCCCCC(=O)OC(CCCCCC)CCCCCCCC)C1CCCC(O)C1", "note": "(stereo not drawn) [Compound 8]", "values": [{"measurement": "Fluorescence intensity (expression intensity of Fluc mRNA)", "setting": "Fluc mRNA [1]", "value": 9.2, "unit": "E + 06"}, {"measurement": "Fluorescence intensity (expression intensity of Fluc mRNA)", "setting": "Fluc mRNA [2]; [5]", "value": 9.2, "unit": "E + 06"}, {"measurement": "Fluorescence intensity (expression intensity of Fluc mRNA)", "setting": "Fluc mRNA [2]; [6]", "value": 5.1, "unit": "E + 06"}]}, {"compound": "CCCCCCCCCOC(=O)CCCCCCCN(CCCCCCOC(=O)C(CCCCCC)CCCCCCCC)C1CCCC(O)C1", "note": "(stereo not drawn) [Compound 9]", "values": [{"measurement": "Fluorescence intensity (expression intensity of Fluc mRNA)", "setting": "Fluc mRNA [2]; [5]", "value": 3.7, "unit": "E + 07"}, {"measurement": "Fluorescence intensity (expression intensity of Fluc mRNA)", "setting": "Fluc mRNA [2]; [7]", "value": 4.2, "unit": "E + 07"}, {"measurement": "particle size change after four weeks of storage", "setting": "[3]; 25° C., week 4 versus week 0", "value": "did not increase significantly"}, {"measurement": "particle size", "setting": "[3]", "value": "about 100 nm"}, {"measurement": "Z-Average", "setting": "[3]; week 0 (day of preparation)", "value": 115, "unit": "nm·days"}, {"measurement": "PDI", "setting": "[3]; week 1, storage at 25° C.", "value": 0.03}, {"measurement": "Z-Average", "setting": "[3]; week 1, storage at 25° C.", "value": 120, "unit": "nm·days"}, {"measurement": "PDI", "setting": "[3]; week 2, storage at 25° C.", "value": 0.06}, {"measurement": "Z-Average", "setting": "[3]; week 2, storage at 25° C.", "value": 125, "unit": "nm·days"}, {"measurement": "Z-Average", "setting": "[3]; week 4, storage at 25° C.", "value": 125, "unit": "nm·days"}, {"measurement": "Fluc expression change after four weeks", "setting": "Fluc mRNA [4]", "value": "did not decrease significantly"}, {"measurement": "Fluc Expression intensities", "setting": "Fluc mRNA [4]; [8]", "value": "4.2E+07"}, {"measurement": "Fluc Expression intensities", "setting": "Fluc mRNA [4]; [9]", "value": "3.1E+07"}]}, {"compound": "CCCCC/C=C\\C/C=C\\CCCCCCCCOC(=O)CCCCCCCN(CCCCCCOC(=O)C(CCCCCC)CCCCCCCC)C1CCCC(O)C1", "note": "(stereo not drawn) [Compound 12]", "values": [{"measurement": "Fluorescence intensity (expression intensity of Fluc mRNA)", "setting": "Fluc mRNA [2]; [7]", "value": 4.2, "unit": "E + 06"}, {"measurement": "Fluorescence intensity (expression intensity of Fluc mRNA)", "setting": "Fluc mRNA [2]; [6]", "value": 6.2, "unit": "E + 06"}]}, {"compound": "CCCCCCCCC(CCCCCC)C(=O)OCCCCCCN(CCCCCCOC(=O)C(CCCCCC)CCCCCCCC)C1CCCC(O)C1", "note": "(stereo not drawn) [Compound 14]", "values": [{"measurement": "Fluorescence intensity (expression intensity of Fluc mRNA)", "setting": "Fluc mRNA [2]; [5]", "value": 8.2, "unit": "E + 06"}, {"measurement": "Fluorescence intensity (expression intensity of Fluc mRNA)", "setting": "Fluc mRNA [2]; [6]", "value": 4.1, "unit": "E + 06"}]}, {"compound": "CCCCCCCCC(CCCCCC)OC(=O)CCCCCN(CCCCCCOC(=O)C(CCCCCC)CCCCCCCC)C1CCCC(O)C1", "note": "(stereo not drawn) [Compound 15]", "values": [{"measurement": "Fluorescence intensity (expression intensity of Fluc mRNA)", "setting": "Fluc mRNA [2]; [5]", "value": 1.8, "unit": "E + 07"}, {"measurement": "Fluorescence intensity (expression intensity of Fluc mRNA)", "setting": "Fluc mRNA [2]; [7]", "value": 4.7, "unit": "E + 07"}, {"measurement": "Fluorescence intensity (expression intensity of Fluc mRNA)", "setting": "Fluc mRNA [2]; [6]", "value": 3.5, "unit": "E + 06"}]}, {"compound": "CCCCCCCCCOC(=O)CCCCCCCN(CCCCCCCC(=O)OC(CCCCCCCC)CCCCCCCC)C1CCCC(OC)C1", "note": "(stereo not drawn) [Compound 16]", "values": [{"measurement": "Fluorescence intensity (expression intensity of Fluc mRNA)", "setting": "Fluc mRNA [2]; [7]", "value": 1.3, "unit": "E + 06"}]}, {"compound": "CCCCCCCCCCCOC(=O)CCCCCCCN(CCCCCCCC(=O)OC(CCCCCCCC)CCCCCCCC)C1CCCC(C#N)C1", "note": "(stereo not drawn) [Compound 17]", "values": [{"measurement": "Fluorescence intensity (expression intensity of Fluc mRNA)", "setting": "Fluc mRNA [2]; [5]", "value": 6.2, "unit": "E + 06"}]}, {"compound": "CCCCCCCCCOC(=O)CCCCCCCN(CCCCCCCC(=O)OC(CCCCCCCC)CCCCCCCC)C1CCCC(F)C1", "note": "(stereo not drawn) [Compound 18]", "values": [{"measurement": "Fluorescence intensity (expression intensity of Fluc mRNA)", "setting": "Fluc mRNA [2]; [5]", "value": 7.8, "unit": "E + 06"}]}, {"compound": "CCCCCCCCCOC(=O)CCCCCCCN(CCCCCCCC(=O)OC(CCCCCCCC)CCCCCCCC)C1CCCC(C(=O)NCCCC)C1", "note": "(stereo not drawn) [Compound 21]", "values": [{"measurement": "Fluorescence intensity (expression intensity of Fluc mRNA)", "setting": "Fluc mRNA [2]; [7]", "value": 1.1, "unit": "E + 06"}]}, {"compound": "CCCCCCCCCOC(=O)CCCCCCCN(CCO)CCCCCCCC(=O)OC(CCCCCCCC)CCCCCCCC", "note": "[SM102, reference compound]", "values": [{"measurement": "Fluorescence intensity (expression intensity of Fluc mRNA)", "setting": "Fluc mRNA [2]; [5]", "value": 4.6, "unit": "E + 07"}, {"measurement": "Fluorescence intensity (expression intensity of Fluc mRNA)", "setting": "Fluc mRNA [2]; [7]", "value": 2.4, "unit": "E + 07"}, {"measurement": "Fluorescence intensity (expression intensity of Fluc mRNA)", "setting": "Fluc mRNA [2]; [6]", "value": 7.4, "unit": "E + 06"}, {"measurement": "fluorescence intensity in liver", "setting": "liver", "value": "3.23E+06"}, {"measurement": "particle size", "setting": "[3]", "value": "about 100 nm"}, {"measurement": "Z-Average", "setting": "[3]; week 0 (day of preparation)", "value": 120, "unit": "nm·days"}, {"measurement": "PDI", "setting": "[3]; week 1, storage at 25° C.", "value": 0.16}, {"measurement": "Z-Average", "setting": "[3]; week 1, storage at 25° C.", "value": 145, "unit": "nm·days"}, {"measurement": "PDI", "setting": "[3]; week 2, storage at 25° C.", "value": 0.21}, {"measurement": "Z-Average", "setting": "[3]; week 2, storage at 25° C.", "value": 195, "unit": "nm·days"}, {"measurement": "PDI", "setting": "[3]; week 4, storage at 25° C.", "value": 0.28}, {"measurement": "Z-Average", "setting": "[3]; week 4, storage at 25° C.", "value": 245, "unit": "nm·days"}, {"measurement": "Fluc expression change after four weeks", "setting": "Fluc mRNA [4]", "value": "decreased significantly"}, {"measurement": "Fluc Expression intensities", "setting": "Fluc mRNA [4]; [8]", "value": "2.4E+07"}, {"measurement": "Fluc Expression intensities", "setting": "Fluc mRNA [4]; [9]", "value": "3.6E+06"}]}]}
